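Protocol summary: plate cells (96-well), add compound at 5 concentrations, incubate 48 h, interpolate endpoints linearly. At the GI50, growth is halved.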 Activity calls are given as the source filed them. Cut-off read from the data, not from the text of the source: active = GI50 up to about 1.1 µM and inactive = higher.
What was measured:
Assay in all cases: NCI anticancer screen, dose series, 48 h
[1] = tested on: CAKI-1
[2] = tested on: EKVX
[3] = tested on: HCC 2998
[4] = tested on: HCT-15
[5] = tested on: HL-60
[6] = tested on: LOX IMVI
[7] = tested on: M14
[8] = tested on: MCF7
[9] = tested on: NCI-H23
[10] = tested on: OVCAR-3
[11] = tested on: OVCAR-5
[12] = tested on: RPMI-8226
[13] = tested on: SK-OV-3
[14] = tested on: SNB-19
[15] = tested on: SR
[16] = tested on: TK-10
[17] = tested on: UACC-257
[18] = tested on: UACC-62
[19] = tested on: UO-31
[20] = tested on: NCI-H460

Measured: GI50

Cc1cc(Cc2cc(Cc3cc(C)cc(C(C)(C)C)c3O)c(C)cc2C)c(O)c(C(C)(C)C)c1
inactive: [1] 19.9 µM | [2] 16.6 µM | [3] 13.5 µM | [5] 20.9 µM | [6] 20 µM | [7] 17.4 µM | [8] 12.7 µM | [9] 17.4 µM | [10] 16.4 µM | [11] 19.6 µM | [12] 20 µM | [13] 16.7 µM | [14] 17.2 µM | [15] 29.2 µM | [16] 24.1 µM | [17] 16.2 µM | [18] 13.4 µM | [19] 18.1 µM
17.4 µM: [4]

Cc1cc2nc3n(c2cc1C)C(c1c(F)cccc1F)SC3 (stereo not drawn)
> 10 µM: [4]
inactive: [1] 17.3 µM | [2] 34.8 µM | [3] 21.2 µM | [6] 15.7 µM | [7] 19.8 µM | [8] 17.5 µM | [9] 16.5 µM | [20] 18.1 µM | [10] 35.3 µM | [11] 19.2 µM | [12] 25.4 µM | [13] 62.7 µM | [14] 18.3 µM | [15] 12.7 µM | [16] 46.8 µM | [17] 30.7 µM | [18] > 10 µM | [19] > 10 µM

CC(C)(CO)CNc1nc(N)nc(Cl)c1/C=N/O
61.7 µM: [4]
inactive: [1] 23.8 µM | [2] 17.5 µM | [3] 71.1 µM | [5] 29.8 µM | [6] 12.1 µM | [8] 23.8 µM | [9] 3.45 µM | [20] 30 µM | [10] 23 µM | [11] 41.2 µM | [12] 15.2 µM | [15] 24.1 µM | [16] 35 µM | [17] 36.1 µM | [18] 31.8 µM | [19] 17.3 µM

O=C1/C(=C/c2ccccc2)N=C2Sc3c([nH]cnc3=O)N12
inactive: [1] > 100 µM | [2] > 100 µM | [3] > 100 µM | [5] 42.3 µM | [6] > 100 µM | [7] > 100 µM | [8] > 100 µM | [9] > 100 µM | [10] > 100 µM | [11] > 100 µM | [12] > 100 µM | [13] > 100 µM | [14] > 100 µM | [15] 25.1 µM | [16] > 100 µM | [17] > 100 µM | [19] > 100 µM
68.9 µM: [4]

CC(=O)OCCOCn1c2c(c(=O)[nH]c1=O)CCC2
> 100 µM: [4]
inactive: [1] > 100 µM | [2] > 100 µM | [3] > 100 µM | [5] > 100 µM | [6] > 100 µM | [7] > 100 µM | [8] > 100 µM | [9] > 100 µM | [10] > 100 µM | [11] > 100 µM | [12] > 100 µM | [14] 8.53 µM | [15] > 100 µM | [16] > 100 µM | [17] > 100 µM | [19] > 100 µM

O=C(CN1CCCCC1)Nc1ccc2c(c1)C1Oc3ccccc3CC1CO2 (stereo not drawn)
15.5 µM: [4]
inactive: [1] 35.9 µM | [2] 17.2 µM | [3] 19.1 µM | [5] 46.1 µM | [6] 16.4 µM | [7] 18.2 µM | [8] 21.8 µM | [9] 24.9 µM | [10] 27.8 µM | [11] 18.7 µM | [12] 28.8 µM | [13] 32.8 µM | [15] 23.2 µM | [16] 23.8 µM | [17] 19.2 µM | [18] 16.4 µM | [19] 21.2 µM

COC(=O)c1ccc(Cc2cc(Cc3ccc(C(=O)OC)cc3)cc(Cc3ccc(C(=O)OC)cc3)c2)cc1
inactive: [2] > 25 µM | [3] > 25 µM | [5] > 25 µM | [6] > 25 µM | [7] > 25 µM | [8] > 25 µM | [20] > 25 µM | [10] > 25 µM | [11] > 25 µM | [12] > 25 µM | [13] > 25 µM | [14] > 25 µM | [15] > 25 µM | [16] > 25 µM | [17] > 25 µM | [18] > 25 µM | [19] > 25 µM
> 25 µM: [4]

COc1ccc(N2C(=O)C3c4[nH]c5ccccc5c4C4c5ccccc5CC4C3C2=O)cc1 (stereo not drawn)
inactive: [1] > 100 µM | [2] > 100 µM | [3] > 100 µM | [5] > 100 µM | [6] > 100 µM | [7] > 100 µM | [8] > 100 µM | [9] > 100 µM | [20] > 100 µM | [10] > 100 µM | [11] > 100 µM | [13] > 100 µM | [14] > 100 µM | [15] > 100 µM | [16] > 100 µM | [17] > 100 µM | [18] > 100 µM | [19] > 100 µM
> 100 µM: [4]

COc1ccc(-c2ncn(C[Si](C)(C)C)c2-c2ccc(OC)cc2)cc1
inactive: [1] 5.85 µM | [2] 3.13 µM | [3] 3.17 µM | [5] 1.72 µM | [6] 4.89 µM | [7] 3.59 µM | [8] 8.59 µM | [9] 3.87 µM | [20] 3.77 µM | [11] 5.02 µM | [12] 1.69 µM | [13] 20 µM | [14] 7.64 µM | [15] 6.19 µM | [16] 7.24 µM | [17] 4.93 µM | [18] 3.2 µM | [19] 2.28 µM
4.51 µM: [4]

Cc1ccc2c(c1)C(=O)c1nc(C)ccc1C2=O
inactive: [1] 24.8 µM | [2] 29.4 µM | [3] 34.9 µM | [5] 21.3 µM | [6] 19.8 µM | [7] 32.7 µM | [8] 25.6 µM | [9] 19.5 µM | [10] 57.1 µM | [11] 86.1 µM | [12] 21.3 µM | [13] > 100 µM | [14] 22.4 µM | [15] 47.1 µM | [16] 38.3 µM | [17] 23.6 µM | [18] 24.3 µM | [19] 26.4 µM
22.6 µM: [4]

CCCCCC(C)(C)CCC(=O)OC1OC(COC2OC(COC3OC(CO)C(O)C(O)C3O)C(O)C(O)C2O)C(O)C(O)C1O (stereo not drawn)
inactive: [2] > 100 µM | [3] > 100 µM | [5] > 100 µM | [6] > 100 µM | [7] > 100 µM | [8] > 100 µM | [9] > 100 µM | [20] > 100 µM | [10] > 100 µM | [11] > 100 µM | [12] > 100 µM | [13] > 100 µM | [14] > 100 µM | [15] > 100 µM | [16] > 100 µM | [17] > 100 µM | [18] > 100 µM | [19] > 100 µM
> 100 µM: [4]

C=CC1(O)CCCC=C1COCc1ccccc1 (stereo not drawn)
65.8 µM: [4]
inactive: [1] > 100 µM | [2] > 100 µM | [3] > 100 µM | [5] 27.4 µM | [6] 18.8 µM | [7] > 100 µM | [8] > 100 µM | [9] 98.6 µM | [20] > 100 µM | [11] > 100 µM | [12] 23.8 µM | [13] > 100 µM | [14] > 100 µM | [15] 24.8 µM | [16] > 100 µM | [17] > 100 µM | [18] > 100 µM | [19] 45.1 µM

CCCCc1ccc(Nc2nc(Cl)c3ncn(C4CC(Oc5ccc(C)cc5)C(COc5ccc(C)cc5)O4)c3n2)cc1 (stereo not drawn)
> 100 µM: [4]
inactive: [1] 6.52 µM | [2] > 100 µM | [3] 44.9 µM | [5] 89.9 µM | [6] > 100 µM | [7] > 100 µM | [8] > 100 µM | [9] > 100 µM | [10] > 100 µM | [11] > 100 µM | [12] > 100 µM | [13] > 100 µM | [14] > 100 µM | [15] > 100 µM | [16] > 100 µM | [17] > 100 µM | [18] > 100 µM | [19] > 100 µM

C=C(C)C(=O)O[C@H]1C[C@@]23O[C@@H]2CCC(=C[C@H]2OC(=O)C(=C)[C@H]12)COC3O (stereo partly drawn)
inactive: [1] > 100 µM | [2] 49.2 µM | [3] 69.3 µM | [5] 14.7 µM | [6] 14.9 µM | [7] 57.5 µM | [8] 30.6 µM | [9] > 100 µM | [20] > 100 µM | [10] 49.5 µM | [11] > 100 µM | [12] 23.4 µM | [13] > 100 µM | [14] > 100 µM | [15] 24.7 µM | [16] > 100 µM | [17] > 100 µM | [18] 54.1 µM
19.5 µM: [4]

Cc1cc(NCc2ccccc2)c2ccccc2[n+]1CCCCCCCCCC[n+]1c(C)cc(NCc2ccccc2)c2ccccc21.[O-][Cl+3]([O-])([O-])[O-].[O-][Cl+3]([O-])([O-])[O-]
1.89 µM: [4]
active: [3] 0.562 µM | [5] 0.265 µM | [6] 0.238 µM | [8] 0.318 µM | [9] 0.247 µM | [20] 0.228 µM | [12] 0.124 µM | [13] 0.365 µM | [14] 0.252 µM | [15] 0.223 µM | [17] 0.274 µM | [18] 0.31 µM
inactive: [1] 1.44 µM | [2] 1.19 µM | [7] 1.21 µM | [11] 2.19 µM | [16] 1.21 µM | [19] 1.86 µM
